Our source for the Kd values is PMC8162404, “Proteomimetic surface fragments distinguish targets by function” (Chemical Science, 2020).

Molecules are shown by their SMILES.

The target in one assay is T1, Gal-1 (Homo sapiens, UniProt P09382).
T1 construct: made in house; host or cells: E. coli BL21(DE3)
T1 sequence (P09382 whole entry): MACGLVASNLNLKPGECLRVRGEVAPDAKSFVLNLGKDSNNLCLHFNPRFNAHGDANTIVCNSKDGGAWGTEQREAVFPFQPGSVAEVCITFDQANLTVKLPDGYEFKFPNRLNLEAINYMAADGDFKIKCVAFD
In words: Pull-down assay with immobilized protein and LSM libraries. The settings on record: H12 library; 1:1 binding assumed; read-out: Surface mapping KD (apparent). It is filed as binding. As for the experimental part:
Pull-down assays with immobilized test proteins and foldameric LSM libraries were carried out. Proteins were equilibrated with LSM probes, and equilibrium bound fractions (FB) were determined from the unbound fractions measured by HPLC-MS methods. Hits were corrected with background binding of the resin. The protocol allowed all binding events to equilibrate irrespective of affinity, specificity, and binding kinetics. This was essential to judge overall druggability and promiscuity. Importantly, the concentration of protein and the total concentration of foldameric LSMs were equimolar, which minimized competition between the probes. This experimental setup approximated independent binding of individual library members. Results were visualized as heat maps of dissociation constants (Fig. 3).
Pull-down assay and data analysis
Pull-down assay. LSM sublibraries were screened separately as previously described.(2) Experiments were performed in the following buffers: (i) 20 mM pH 7.4 HEPES, 150 mM NaCl, 5 mM CaCl2 for CaM; (ii) 50 mM pH 7.4 HEPES, 150 mM NaCl, 1 mM TCEP, 1 mM CaCl2 for S100 proteins; (iii) 20 mM pH 7.4 HEPES, 150 mM NaCl, 1 mM TCEP for Gal-1 and (iv) 20 mM pH 7.4 HEPES, 150 mM NaCl for RecQ-WH. Assays were performed in paper filter spin cups (Thermo Scientific) with sample volumes of 100 µl. Hexahistidine-tagged proteins were immobilized on previously washed Co-NTA resin (TALON, Takara Bio USA, Inc., Mountain View, CA) in 64 µM final concentration. LSM sublibrary was added, in which each of the 64 library members were used at a concentration of 1 µM. Samples were incubated at room temperature for 30 min with shaking at 100 rpm. Then, samples were centrifuged at 1000 rpm for 2 min and washed with 100 µl pull-down buffer to remove unbound compounds.
The control experiments were performed using the same compounds and the resin but without the immobilized protein. In case of competitive assays, competitor peptides were added to LSM sublibrary samples in 200 µM final concentration. In the case of Gal-1, lactose (competitor) was used in a concentration of 10 mM. Experiments were performed at least twice. Mean […]
LC-MS methods and parameters. HPLC/ESI-MS analysis was used to characterize the samples from the pull-down assay. LC-MS analysis was performed with a Thermo Scientific Dionex UltiMate 3000 HPLC system interfaced to an LTQ ion trap mass spectrometer (Thermo Electron Corp., San Jose, CA, USA). Samples were injected onto an Aeris Widepore XB-C18 (250 x 4.6 mm) analytical HPLC column using gradient elution 5-80 % solution B during 25 minutes. For pull-down samples, eluent composition was 0.1% acetic acid in distilled water (Solution A) and 0.1% acetic acid in acetonitrile (solution B). Mass spectra were acquired in full scan mode from 200 to 2000 m/z range. For overlapping peaks, selective reaction monitoring (SRM) was […]
MS data analysis. Thermo Xcalibur 2.2 software was used for peak identification and integration. The majority of the foldameric fragments could be resolved independently via HPLC-MS/MS measurements based on molecular weight, MS fragmentation pattern and retention time. Peaks of some foldamers with β3-hIle or β3-hLeu in position R2 could not be resolved, these were integrated and averaged. In the processing method, each sample component was associated to a chromatographic peak based on previously identified mass (m/z) and retention time (ref (2) and Table S7-10). Using ICIS peak detection algorithm, the general detection and integration criteria were: smoothing points: 5, baseline window: 80, area noise factor: 5, peak noise factor: 10. Using these processing setups, all raw data files were reprocessed together and analyzed. Errors in peak identification during the automatic processing were corrected manually.
Calculation of the discussed parameters
1. Bound fractions (FB.) were calculated from the HPLC-MS intensity loss of the LSM probes compared to the control where no protein was immobilized to the resin: […]
`C[C@@H](CC(=O)N[C@H]1CCC[C@@H]1C(=O)N[C@H]1CCC[C@@H]1C(=O)N[C@@H](CC(=O)O)CC(=O)N[C@H]1CCC[C@@H]1C(=O)N[C@H]1CCC[C@@H]1C(N)=O)NC(=O)[C@H]1CCC[C@@H]1NC(=O)[C@H]1CCC[C@@H]1N` [H12 AD]: the Kd is 438 µM.

Regarding `C[C@@H](CC(=O)N[C@H]1CCC[C@@H]1C(=O)N[C@H]1CCC[C@@H]1C(=O)N[C@@H](CCC(=O)O)CC(=O)N[C@H]1CCC[C@@H]1C(=O)N[C@H]1CCC[C@@H]1C(N)=O)NC(=O)[C@H]1CCC[C@@H]1NC(=O)[C@H]1CCC[C@@H]1N` [H12 AE], the Kd is 388 µM.

With `C[C@@H](CC(=O)N[C@H]1CCC[C@@H]1C(=O)N[C@H]1CCC[C@@H]1C(=O)N[C@@H](CC(N)=O)CC(=O)N[C@H]1CCC[C@@H]1C(=O)N[C@H]1CCC[C@@H]1C(N)=O)NC(=O)[C@H]1CCC[C@@H]1NC(=O)[C@H]1CCC[C@@H]1N` [H12 AN], the Kd was 330 µM.

Consider `C[C@@H](CC(=O)N[C@H]1CCC[C@@H]1C(=O)N[C@H]1CCC[C@@H]1C(=O)N[C@@H](CCC(N)=O)CC(=O)N[C@H]1CCC[C@@H]1C(=O)N[C@H]1CCC[C@@H]1C(N)=O)NC(=O)[C@H]1CCC[C@@H]1NC(=O)[C@H]1CCC[C@@H]1N` [H12 AQ], for which the Kd was 456 µM.

As for `C[C@@H](CC(=O)N[C@H]1CCC[C@@H]1C(=O)N[C@H]1CCC[C@@H]1C(=O)N[C@@H](CO)CC(=O)N[C@H]1CCC[C@@H]1C(=O)N[C@H]1CCC[C@@H]1C(N)=O)NC(=O)[C@H]1CCC[C@@H]1NC(=O)[C@H]1CCC[C@@H]1N` [H12 AS], the Kd turned out to be 307 µM.

Regarding `CC(C)[C@@H](CC(=O)N[C@H]1CCC[C@@H]1C(=O)N[C@H]1CCC[C@@H]1C(N)=O)NC(=O)[C@H]1CCC[C@@H]1NC(=O)[C@H]1CCC[C@@H]1NC(=O)C[C@H](C)NC(=O)[C@H]1CCC[C@@H]1NC(=O)[C@H]1CCC[C@@H]1N` [H12 AV], the Kd was 491 µM.

As to `C[C@@H](CC(=O)N[C@H]1CCC[C@@H]1C(=O)N[C@H]1CCC[C@@H]1C(N)=O)NC(=O)[C@H]1CCC[C@@H]1NC(=O)[C@H]1CCC[C@@H]1NC(=O)C[C@H](CC(=O)O)NC(=O)[C@H]1CCC[C@@H]1NC(=O)[C@H]1CCC[C@@H]1N` [H12 DA], the Kd was found to be 248 µM.

For `NC(=O)[C@H]1CCC[C@@H]1NC(=O)[C@H]1CCC[C@@H]1NC(=O)C[C@H](CC(=O)O)NC(=O)[C@H]1CCC[C@@H]1NC(=O)[C@H]1CCC[C@@H]1NC(=O)C[C@H](CC(=O)O)NC(=O)[C@H]1CCC[C@@H]1NC(=O)[C@H]1CCC[C@@H]1N` [H12 DD], the Kd was 372 µM.

Regarding `NC(=O)[C@H]1CCC[C@@H]1NC(=O)[C@H]1CCC[C@@H]1NC(=O)C[C@H](CCC(=O)O)NC(=O)[C@H]1CCC[C@@H]1NC(=O)[C@H]1CCC[C@@H]1NC(=O)C[C@H](CC(=O)O)NC(=O)[C@H]1CCC[C@@H]1NC(=O)[C@H]1CCC[C@@H]1N` [H12 DE], the Kd stood at 238 µM.

Regarding `NC(=O)[C@H]1CCC[C@@H]1NC(=O)[C@H]1CCC[C@@H]1NC(=O)C[C@H](Cc1ccccc1)NC(=O)[C@H]1CCC[C@@H]1NC(=O)[C@H]1CCC[C@@H]1NC(=O)C[C@H](CC(=O)O)NC(=O)[C@H]1CCC[C@@H]1NC(=O)[C@H]1CCC[C@@H]1N` [H12 DF], the Kd came to 254 µM.

`NCCCC[C@@H](CC(=O)N[C@H]1CCC[C@@H]1C(=O)N[C@H]1CCC[C@@H]1C(N)=O)NC(=O)[C@H]1CCC[C@@H]1NC(=O)[C@H]1CCC[C@@H]1NC(=O)C[C@H](CC(=O)O)NC(=O)[C@H]1CCC[C@@H]1NC(=O)[C@H]1CCC[C@@H]1N` [H12 DK]: the Kd came out at 173 µM.

Regarding `CSCC[C@@H](CC(=O)N[C@H]1CCC[C@@H]1C(=O)N[C@H]1CCC[C@@H]1C(N)=O)NC(=O)[C@H]1CCC[C@@H]1NC(=O)[C@H]1CCC[C@@H]1NC(=O)C[C@H](CC(=O)O)NC(=O)[C@H]1CCC[C@@H]1NC(=O)[C@H]1CCC[C@@H]1N` [H12 DM], the Kd worked out at 218 µM.

With `NC(=O)C[C@@H](CC(=O)N[C@H]1CCC[C@@H]1C(=O)N[C@H]1CCC[C@@H]1C(N)=O)NC(=O)[C@H]1CCC[C@@H]1NC(=O)[C@H]1CCC[C@@H]1NC(=O)C[C@H](CC(=O)O)NC(=O)[C@H]1CCC[C@@H]1NC(=O)[C@H]1CCC[C@@H]1N` [H12 DN], the Kd turned out to be 226 µM.

Consider `NC(=O)CC[C@@H](CC(=O)N[C@H]1CCC[C@@H]1C(=O)N[C@H]1CCC[C@@H]1C(N)=O)NC(=O)[C@H]1CCC[C@@H]1NC(=O)[C@H]1CCC[C@@H]1NC(=O)C[C@H](CC(=O)O)NC(=O)[C@H]1CCC[C@@H]1NC(=O)[C@H]1CCC[C@@H]1N` [H12 DQ], for which the Kd worked out at 244 µM.

Turning to `NC(=O)[C@H]1CCC[C@@H]1NC(=O)[C@H]1CCC[C@@H]1NC(=O)C[C@H](CO)NC(=O)[C@H]1CCC[C@@H]1NC(=O)[C@H]1CCC[C@@H]1NC(=O)C[C@H](CC(=O)O)NC(=O)[C@H]1CCC[C@@H]1NC(=O)[C@H]1CCC[C@@H]1N` [H12 DS], the Kd was 199 µM.

As to `C[C@@H](O)[C@@H](CC(=O)N[C@H]1CCC[C@@H]1C(=O)N[C@H]1CCC[C@@H]1C(N)=O)NC(=O)[C@H]1CCC[C@@H]1NC(=O)[C@H]1CCC[C@@H]1NC(=O)C[C@H](CC(=O)O)NC(=O)[C@H]1CCC[C@@H]1NC(=O)[C@H]1CCC[C@@H]1N` [H12 DT], the Kd amounted to 398 µM.

Turning to `CC(C)[C@@H](CC(=O)N[C@H]1CCC[C@@H]1C(=O)N[C@H]1CCC[C@@H]1C(N)=O)NC(=O)[C@H]1CCC[C@@H]1NC(=O)[C@H]1CCC[C@@H]1NC(=O)C[C@H](CC(=O)O)NC(=O)[C@H]1CCC[C@@H]1NC(=O)[C@H]1CCC[C@@H]1N` [H12 DV], the Kd came out at 270 µM.

For `NC(=O)[C@H]1CCC[C@@H]1NC(=O)[C@H]1CCC[C@@H]1NC(=O)C[C@H](Cc1c[nH]c2ccccc12)NC(=O)[C@H]1CCC[C@@H]1NC(=O)[C@H]1CCC[C@@H]1NC(=O)C[C@H](CC(=O)O)NC(=O)[C@H]1CCC[C@@H]1NC(=O)[C@H]1CCC[C@@H]1N` [H12 DW], the Kd amounted to 240 µM.

As to `NC(=O)[C@H]1CCC[C@@H]1NC(=O)[C@H]1CCC[C@@H]1NC(=O)C[C@H](Cc1ccc(O)cc1)NC(=O)[C@H]1CCC[C@@H]1NC(=O)[C@H]1CCC[C@@H]1NC(=O)C[C@H](CC(=O)O)NC(=O)[C@H]1CCC[C@@H]1NC(=O)[C@H]1CCC[C@@H]1N` [H12 DY], the Kd came to 205 µM.

As for `C[C@@H](CC(=O)N[C@H]1CCC[C@@H]1C(=O)N[C@H]1CCC[C@@H]1C(N)=O)NC(=O)[C@H]1CCC[C@@H]1NC(=O)[C@H]1CCC[C@@H]1NC(=O)C[C@H](CCC(=O)O)NC(=O)[C@H]1CCC[C@@H]1NC(=O)[C@H]1CCC[C@@H]1N` [H12 EA], the Kd was found to be 340 µM.

On to `NC(=O)[C@H]1CCC[C@@H]1NC(=O)[C@H]1CCC[C@@H]1NC(=O)C[C@H](CC(=O)O)NC(=O)[C@H]1CCC[C@@H]1NC(=O)[C@H]1CCC[C@@H]1NC(=O)C[C@H](CCC(=O)O)NC(=O)[C@H]1CCC[C@@H]1NC(=O)[C@H]1CCC[C@@H]1N` [H12 ED], for which the Kd came out at 238 µM.

`NC(=O)[C@H]1CCC[C@@H]1NC(=O)[C@H]1CCC[C@@H]1NC(=O)C[C@H](CCC(=O)O)NC(=O)[C@H]1CCC[C@@H]1NC(=O)[C@H]1CCC[C@@H]1NC(=O)C[C@H](CCC(=O)O)NC(=O)[C@H]1CCC[C@@H]1NC(=O)[C@H]1CCC[C@@H]1N` [H12 EE]: the Kd was 349 µM.

The assay is the same for the next values; noted with them: read-out: KD estimated by pull-down experiments.
As to `NC(=O)[C@H]1CCCC[C@@H]1NC(=O)C[C@H](Cc1c[nH]c2ccccc12)NC(=O)[C@H]1CCCC[C@@H]1NC(=O)[C@H]1CCCC[C@@H]1NC(=O)C[C@H](Cc1c[nH]c2ccccc12)NC(=O)[C@H]1CCCC[C@@H]1N` [1b], the Kd was 30 to 40 µM.

On to `NC(=O)[C@H]1CCCC[C@@H]1NC(=O)C[C@H](Cc1ccccc1)NC(=O)[C@H]1CCCC[C@@H]1NC(=O)[C@H]1CCCC[C@@H]1NC(=O)C[C@H](Cc1c[nH]c2ccccc12)NC(=O)[C@H]1CCCC[C@@H]1N` [12b], for which the Kd is 30 to 40 µM.
